Results reported in paper PMC7211193, “Evaluation of absorption, distribution, metabolism, and excretion of [^14C]-rucaparib, a poly(ADP-ribose) polymerase inhibitor, in patients with advanced solid tumors” (Investigational New Drugs, 2019).
“And” between values parts separate entries of the source, which are not always exact repeats. Equal entries are not always repeated. Values belong to the compound of their own block, whether it stands above or below them.

Legend:
Assay type in all cases: in vivo, human
[1] = Metabolite profiling in plasma (LC-MS-TopCount); settings: for Amount detected in plasma: Hamilton AUC0-24h pooled plasma
Experimental: Plasma samples from six patients were pooled using two methods: (1) A Hamilton pool plasma (0–24 h) for metabolite profile determination was prepared by combining plasma aliquots of a volume proportional to the time interval used for calculating the AUC (AUC0-24h pool) for each patient and (2) four time-point pooling samples were obtained by equal volume pool at 1, 4, 8, and 24 h across six patients. In addition, plasma samples at 1, 8, and 24 h were selected from three patients (Patients 03, 08, and 09) for metabolite profiles analysis to check the individual differences between patients. Samples collected after 24 h post dose were not included in the pooling due to the low radioactivity at later time points. All plasma samples (pooled and from individuals) were extracted at least two times with acetonitrile. All supernatants were evaporated to dryness, and the dried residues were reconstituted in 20% acetonitrile in water containing 0.1% TFA. The sample recovery was obtained by comparing the radioactivity concentrations before and after extraction, and the mean recovery was about 70%.
Aliquots of the supernatants were injected into the HPLC, and the HPLC elutes were collected as fractions at intervals of 30 sec per well into LumaPlate-96 DeepWell microplates (PerkinElmer). Due to the low radioactivity in each plasma sample, metabolite profiles were obtained by TopCount (PerkinElmer) analysis of HPLC elutes. The fractions were dried at room temperature, and then analyzed by a TopCount NXT radiometric microplate reader (PerkinElmer) to obtain metabolite profiles. The supernatants of extracts were also analyzed using an LC-MS method to identify metabolites.
(§1) Metabolite profiling and identification were performed on an LC system (Agilent) coupled to an LTQ Orbitrap mass spectrometer (Thermo Electron, Waltham, MA, USA) in combination with offline TopCount (LC-MS-TopCount) or online Radiomatic 625TR (LC-MS-Radiomatic; PerkinElmer). Proposed structures of the metabolites were based on accurate mass (<5 ppm) and comparison of mass spectral data of parent compound rucaparib and metabolite standard M324. The Radiomatic 625TR flow detector, equipped with a 200 μL flow cell, was operated using scintillation cocktail (Ultima-Flo M) delivered at a flow rate of 1 mL/min. Chromatography was done using a Phenomenex (Torrance, CA, USA) Luna Phenyl-Hexyl column (250 × 2 mm, 5 μm, 100 Å) at ambient temperature during the sample analysis. The mobile phase was (A) 0.05% TFA in water and (B) 0.05% TFA in acetonitrile, with a 0.2 mL/min flow rate. The gradient was as follows: 5% B over 2.1 min, to 20% B in 1.0 min, to 35% B in 16.9 min, isocratic at 35% B for 5 min, to 95% B over 5 min, and reduced to 5% B over 1 min, with total run time 45 min.
(§2) The abundance of unchanged rucaparib and metabolites identified in plasma, urine, and feces was determined as a percentage of the TRA in the analyzed samples. Percentage of the administered dose of rucaparib and metabolites was calculated in urine and feces (formula A). The concentration of rucaparib and its metabolites in plasma (ng Eq h/mL) was calculated based on the specific activity, TRA, and percentage of peaks (formula B). The AUC0-24h value of rucaparib and its major metabolite M324 in plasma was calculated using both Hamilton method (formula C) and linear trapezoidal method (formula D). • (A) %Doseofmetabolite=TRAinurineorfeces(dpm)÷TRAinadministereddose(dpm)×%metabolitesinmatrix • (B) Metaboliteconcentrationsinplasma(ngEq/mL)=TRAinplasma(dpm/mL)specificactivity(ngEq/dpm)×%metabolitesinthematrix • (C) Hamiltonmethod:AUC0−24h(ngEqh/mL)=concentrationinHamilton(AUC0−24h)pooledplasma(ngEq/mL)×24(h) • (D) Lineartrapezoidalmethod:AUC0−24h(ngEqh/mL)=C1h/2×1h+C1h+C4h/2×(4h−1h)+C4h+C8h/2×(8h−4h)+C8h+C24h/2×(24h−8h)

[2] = Metabolite profiling in pooled urine (LC-MS-Radiomatic)
Experimental: For each patient, urine samples from different collection intervals were pooled in proportion to their sample weight in order to obtain a pooled sample covering 90% of the TRA in urine. Pooled urine samples were lyophilized and then extracted at least twice with acetonitrile. The obtained supernatant was evaporated to dryness, and the dried residues were reconstituted in 20% acetonitrile in water containing 0.1% TFA. An aliquot of the supernatant was analyzed for TRA to determine extraction efficiency, and the mean recovery was ≈70%. Aliquots of the supernatants were injected into the HPLC coupled to UV and radioactive detectors to obtain metabolite profiles. The samples were also analyzed using LC-MS for metabolite identification.
as §1, §2

[3] = Metabolite profiling in pooled feces (LC-MS-Radiomatic); settings: for Amount detected in feces: pooled fecal homogenates, mainly observed by MS only
Experimental: For each patient, homogenized feces samples from different collection intervals were pooled in proportion to their sample weight in order to obtain a pooled sample covering 90% of the TRA recovered in feces. Aliquots of the pooled fecal samples were extracted at least twice with acetonitrile. The obtained supernatant was evaporated. The dried residues were reconstituted in 40% DMSO in water to obtain maximum recovery. An aliquot of the supernatant was analyzed for TRA to determine extraction efficiency, and the mean recovery was ≈75%. Aliquots of the supernatants were injected into the HPLC coupled to UV and radioactive detectors to obtain metabolite profiles. The sample supernatants were also analyzed using LC-MS to identify metabolites.
as §1, §2

[4] = Metabolite identification by LC-MS/MS in plasma, urine and feces; settings: F feces, P plasma, U urine
Experimental: as §1
The LTQ Orbitrap mass spectrometer was equipped with an electrospray ionization interface and operated in positive ionization mode for metabolite profiling and identification. Mass spectra were acquired in full scan (MS) (m/z 150–1500) and data-dependent scan modes. Mass spectrometer parameter settings were: spray voltage, +5.0 kV; capillary temperature, 350 °C; sheath gas, 80 (arbitrary unit); auxiliary gas, 30 (arbitrary unit); activation Q, 0.25; activation time, 30 msec; resolution, 7500; and collision energy, 35 eV.
The structures of the metabolites were identified by LC-MS/MS based on comparisons of mass spectral fragmentation patterns with those produced by the parent compound. Further confirmation of the identities of the metabolites was based on the elemental composition determined from accurate mass analyses using an Orbitrap high-resolution mass spectrometer.
The structures of the major metabolites found in plasma, urine, and feces were also confirmed by comparisons with the synthetic reference standard M324.

[5] = 0-24 h pooled plasma, N = 6, mean ± SD

- % Peak (of plasma radioactivity), Hamilton (AUC0-24h) pooled plasma [1, 5]: 18.6 ± 10.8%
- Concentration, Hamilton (AUC0-24h) pooled plasma [1, 5]: 94.0 ± 62.7 ng Eq/mL
- M324 as percentage of unchanged rucaparib exposure in 24-h pooled plasma ([1]; Hamilton 0-24 h pooled plasma): 30.3%
- % Radioactive peaks in individual plasma, Patient 03, 1 h ([1]; Patient 03, 1 h): 15.4%
- % Radioactive peaks in individual plasma, Patient 03, 8 h ([1]; Patient 03, 8 h): 33.3%
- % Radioactive peaks in individual plasma, Patient 03, 24 h ([1]; Patient 03, 24 h): 63.9%
- % Radioactive peaks in individual plasma, Patient 08, 1 h ([1]; Patient 08, 1 h): 7.94%
- % Radioactive peaks in individual plasma, Patient 08, 8 h ([1]; Patient 08, 8 h): 20%
- % Radioactive peaks in individual plasma, Patient 08, 24 h ([1]; Patient 08, 24 h): 61.5%
- % Radioactive peaks in individual plasma, Patient 09, 1 h ([1]; Patient 09, 1 h): 15.4%
- % Radioactive peaks in individual plasma, Patient 09, 8 h ([1]; Patient 09, 8 h): 17.9%
- % Radioactive peaks in individual plasma, Patient 09, 24 h ([1]; Patient 09, 24 h): 36.2%
- % Radioactive peaks in individual plasma, Mean ± SD, 1 h ([1]; Patients 03, 08, 09, 1 h): 12.9 ± 4.31%
- % Radioactive peaks in individual plasma, Mean ± SD, 8 h ([1]; Patients 03, 08, 09, 8 h): 23.7 ± 8.35%
- % Radioactive peaks in individual plasma, Mean ± SD, 24 h ([1]; Patients 03, 08, 09, 24 h): 53.9 ± 15.3%
- AUC0-24h, Hamilton (AUC0-24h) pooled plasma ([1]; concentration in 0-24-h pooled sample × 24 h): 2260 ng Eq h/mL
- concentration at 1 h ([1]; human, plasma, oral, 600 mg, single pooled sample from all six patients, 1 h, read-out: Mean concentration, time point pooled plasma, 1 h): 31.1 ng/mL
- concentration at 4 h ([1]; human, plasma, oral, 600 mg, single pooled sample from all six patients, 4 h, read-out: Mean concentration, time point pooled plasma, 4 h): 265 ng/mL
- concentration at 8 h ([1]; human, plasma, oral, 600 mg, single pooled sample from all six patients, 8 h, read-out: Mean concentration, time point pooled plasma, 8 h): 105 ng/mL
- concentration at 24 h ([1]; human, plasma, oral, 600 mg, single pooled sample from all six patients, 24 h, read-out: Mean concentration, time point pooled plasma, 24 h): 239 ng/mL
- Mean AUC0-24h, time point pooled plasma ([1]; trapezoidal method from 1, 4, 8, 24 h pools): 3960 ng Eq h/mL
- % of dose in pooled urine, Patient 01 ([2]; Patient 01): 6.17 % dose
- % of dose in pooled urine, Patient 03 ([2]; Patient 03): 7.24 % dose
- % of dose in pooled urine, Patient 05 ([2]; Patient 05): 7.22 % dose
- % of dose in pooled urine, Patient 06 ([2]; Patient 06): 8.54 % dose
- % of dose in pooled urine, Patient 08 ([2]; Patient 08): 6 % dose
- % of dose in pooled urine, Patient 09 ([2]; Patient 09): 10.3 % dose
- % Peak (of TRA) in urine ([2]; pooled urine covering 90% of urine radioactivity, N = 6, mean ± SD): 50.0 ± 15.5%
- % Dose in urine ([2]; pooled urine, % of administered dose, N = 6, mean ± SD): 7.58 ± 1.61%
- % of dose in pooled fecal homogenate, Patient 01 ([3]; Patient 01): 6.39 % dose
- % of dose in pooled fecal homogenate, Patient 03 ([3]; Patient 03): 7.82 % dose
- % of dose in pooled fecal homogenate, Patient 05 ([3]; Patient 05): 3.33 % dose
- % of dose in pooled fecal homogenate, Patient 06 ([3]; Patient 06): 2.22 % dose
- % of dose in pooled fecal homogenate, Patient 08 ([3]; Patient 08): 0.00 % dose
- % of dose in pooled fecal homogenate, Patient 09 ([3]; Patient 09): 0.00 % dose
- % Peak (of TRA) in feces ([3]; pooled fecal homogenate covering >90% of fecal excretion, N = 6, mean ± SD): 5.07 ± 4.95%
- % Dose in feces ([3]; pooled fecal homogenate, % of administered dose, N = 6, mean ± SD): 3.3% and 3.29 ± 3.25%
- Matrix in which identified [4]: P, U, F
SMILES: O=C(O)c1ccc(-c2[nH]c3cc(F)cc4c3c2CCNC4=O)cc1 [M324]

- Amount detected in plasma [1]: small or trace amounts
- Amount observed in urine ([2]; pooled urine): small to trace amounts
- Amount detected in feces [3]: trace amounts
- Matrix in which identified [4]: P, U, F
SMILES: NCc1ccc(-c2[nH]c3cc(F)cc4c3c2CCNC4=O)cc1 [M309]

- Amount detected in plasma [1]: small or trace amounts
- Amount observed in urine ([2]; pooled urine): small to trace amounts
- Amount detected in feces [3]: trace amounts
- Matrix in which identified [4]: P, U, F
SMILES: NC(=O)c1ccc(-c2[nH]c3cc(F)cc4c3c2CCNC4=O)cc1 [M323]

- Amount detected in plasma [1]: small or trace amounts
- Amount observed in urine ([2]; pooled urine): small to trace amounts
- Amount detected in feces [3]: trace amounts
- Matrix in which identified [4]: P, U, F
SMILES: O=CNCc1ccc(-c2[nH]c3cc(F)cc4c3c2CCNC4=O)cc1 [M337b]
